Measured values: US6727264B1 (Synaptic Pharmaceutical Corporation, priority 2001, dated 2004)

Target: rat MCH-1 (Rattus norvegicus, UniProt P97639)
Assay: Radioligand binding assay at cloned rat MCH1 receptor ([3H] Compound A)
Parameters: host or cells: Peak rapid 293 (Peakr293) cells, transient calcium phosphate transfection, membranes
Conditions: cloned rat MCH1 receptor; 0.08 nM [3H] Compound A; Peakr293 cell membranes; read-out: Ki (nM) rMCH1

Chain of rat MCH-1 (P97639 whole entry): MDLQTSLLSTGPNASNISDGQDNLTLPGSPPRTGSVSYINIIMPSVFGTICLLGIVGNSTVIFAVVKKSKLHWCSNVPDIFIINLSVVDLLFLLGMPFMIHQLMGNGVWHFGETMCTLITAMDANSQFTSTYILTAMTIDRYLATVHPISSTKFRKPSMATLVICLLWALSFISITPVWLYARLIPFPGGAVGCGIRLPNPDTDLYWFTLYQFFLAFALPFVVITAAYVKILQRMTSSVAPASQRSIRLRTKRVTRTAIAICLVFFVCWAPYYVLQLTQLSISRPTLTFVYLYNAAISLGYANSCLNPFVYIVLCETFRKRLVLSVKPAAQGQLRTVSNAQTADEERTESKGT

Row | Ki | SMILES
1 | 29.8 nM | Cc1onc(-c2ccccc2)c1C(=O)NCCCN1CCC(c2cccc(NC(=O)C(C)C)c2)CC1 [Example 638]
2 | 36.3 nM | CC(C)C(=O)Nc1cccc(C2CCN(CCCNC(=O)Cc3ccc(F)cc3)CC2)c1 [Example 639]
3 | 11.2 nM | CC(C)C(=O)Nc1cccc(C2CCN(CCCNS(=O)(=O)c3ccc(Cl)c([N+](=O)[O-])c3)CC2)c1 [Example 640]
4 | 14.2 nM | CC(C)C(=O)Nc1cccc(C2CCN(CCCNC(=O)c3cccnc3Oc3ccc(Cl)cc3)CC2)c1 [Example 641]
5 | 8.3 nM | CC(C)C(=O)Nc1cccc(C2CCN(CCCNC(=O)c3ccc(Oc4cc(Cl)cc(Cl)c4)o3)CC2)c1 [Example 642]
6 | 130 nM | CC(C)C(=O)Nc1cccc(C2CCN(CCCNS(=O)(=O)c3ccccc3F)CC2)c1 [Example 643]
7 | 196 nM | Cc1noc(C)c1S(=O)(=O)NCCCN1CCC(c2cccc(NC(=O)C(C)C)c2)CC1 [Example 644]
8 | 85.3 nM | CC(C)C(=O)Nc1cccc(C2CCN(CCCNS(=O)(=O)c3ccc(C(C)(C)C)cc3)CC2)c1 [Example 645]
9 | 236 nM | CC(C)C(=O)Nc1cccc(C2CCN(CCCCCCN)CC2)c1 [Example 646]
10 | 81.6 nM | CC(C)C(=O)Nc1cccc(C2CCN(CCNC(=O)Nc3ccc(-c4ccccc4)cc3)CC2)c1 [Example 647]
11 | 13.4 nM | CC(C)C(=O)Nc1cccc(C2CCN(CCNC(=O)c3coc(Oc4cc(Cl)cc(Cl)c4)c3)CC2)c1 [Example 648]
12 | 1.7 nM | CC(C)C(=O)Nc1cccc(C2CCN(CCNC(=O)C(c3ccccc3)c3ccccc3)CC2)c1 [Example 649]
13 | 21.1 nM | CC(C)C(=O)Nc1cccc(C2CCN(CCNC(=O)c3ccc4ccccc4c3)CC2)c1 [Example 650]
14 | 16.7 nM | Cc1onc(-c2c(Cl)cccc2Cl)c1C(=O)NCCCCN1CCC(c2cccc(NC(=O)C(C)C)c2)CC1 [Example 651]
15 | 48.8 nM | CC(C)C(=O)Nc1cccc(C2CCN(CCCCNC(=O)C(c3ccccc3)c3ccccc3)CC2)c1 [Example 653]
16 | 43.6 nM | CC(C)C(=O)Nc1cccc(C2CCN(CCCCCNC(=O)C(c3ccccc3)c3ccccc3)CC2)c1 [Example 654]
17 | 31.1 nM | CC(C)C(=O)Nc1cccc(C2CCN(CCCCNC(=O)c3cc(Cl)cc(Cl)c3)CC2)c1 [Example 655]
18 | 49.7 nM | CC(C)C(=O)Nc1cccc(C2CCN(CCCCNC(=O)c3ccc(Oc4cc(Cl)cc(Cl)c4)o3)CC2)c1 [Example 656]
19 | 77.9 nM | CC(C)C(=O)Nc1cccc(C2CCN(CCCCNC(=O)c3cccc(Cl)c3)CC2)c1 [Example 657]
20 | 12 nM | CC(C)C(=O)Nc1cccc(C2CCN(CCCCNC(=O)c3ccc(F)c(F)c3)CC2)c1 [Example 658]
21 | 40.2 nM | CC(C)C(=O)Nc1cccc(C2CCN(CCCCNC(=O)Nc3cc(Cl)cc(Cl)c3)CC2)c1 [Example 659]
22 | 129 nM | CC(C)C(=O)Nc1cccc(C2CCN(CCCCNC(=O)Nc3ccc(-c4ccccc4)cc3)CC2)c1 [Example 660]
23 | 33.3 nM | CC(C)C(=O)Nc1cccc(C2CCN(CCCCC(=O)c3ccc([N+](=O)[O-])cc3)CC2)c1 [Example 661]
24 | 50.3 nM | CC(C)C(=O)Nc1cccc(C2CCN(CCCCC(=O)c3ccc(F)cc3)CC2)c1 [Example 662]

Row | Ki | SMILES
25 | 73.4 nM | CC(C)C(=O)Nc1cccc(C2CCN(CCCCC(=O)c3ccccc3C(F)(F)F)CC2)c1 [Example 663]
26 | 21.9 nM | CC(C)C(=O)Nc1cccc(C2CCN(CCCCC(=O)c3cccc(Br)c3)CC2)c1 [Example 664]
27 | 21.9 nM | CC(C)C(=O)Nc1cccc(C2CCN(CCCCC(=O)c3cccc(Cl)c3)CC2)c1 [Example 666]
28 | 43.9 nM | CC(C)C(=O)Nc1cccc(C2CCN(CCCCC(=O)c3ccc(Br)cc3)CC2)c1 [Example 667]
29 | 25.8 nM | CC(C)C(=O)Nc1cccc(C2CCN(CCCCC(=O)c3ccccc3I)CC2)c1 [Example 668]
30 | 42.2 nM | CC(C)C(=O)Nc1cccc(C2CCN(CCCCC(=O)c3cccc(F)c3)CC2)c1 [Example 669]
31 | 57.6 nM | CC(C)C(=O)Nc1cccc(C2CCN(CCCCC(=O)c3cccc(C(F)(F)F)c3)CC2)c1 [Example 670]
32 | 88.6 nM | CC(C)C(=O)Nc1cccc(C2CCN(CCCCC(=O)c3ccccc3F)CC2)c1 [Example 671]
33 | 19.7 nM | CC(C)C(=O)Nc1cccc(C2CCN(CCCCC(=O)c3cccc(I)c3)CC2)c1 [Example 672]
34 | 32.5 nM | CC(C)C(=O)Nc1cccc(C2CCN(CCCCC(=O)c3ccccc3Cl)CC2)c1 [Example 673]
35 | 39.6 nM | CC(C)C(=O)Nc1cccc(C2CCN(CCCCC(=O)c3ccc(C(F)(F)F)cc3)CC2)c1 [Example 674]
36 | 32.6 nM | CC(C)C(=O)Nc1cccc(C2CCN(CCCCC(=O)c3ccc(Cl)cc3)CC2)c1 [Example 675]
37 | 21.9 nM | CC(C)C(=O)Nc1cccc(C2CCN(CCCCC(=O)c3ccc(I)cc3)CC2)c1 [Example 676]
38 | 52.3 nM | CC(C)C(=O)Nc1cccc(C2CCN(CCCCC(=O)c3ccccc3Br)CC2)c1 [Example 677]
39 | 14.7 nM | CC(C)C(=O)Nc1cccc(C2CCN(CCCCNC(=O)c3cccnc3Oc3ccc(Cl)cc3)CC2)c1 [Example 678]
40 | 97.9 nM | COc1ccc(C(=O)NCCCCN2CCC(c3cccc(NC(=O)C(C)C)c3)CC2)cc1OC [Example 679]
41 | 28.1 nM | Cc1onc(-c2ccccc2Cl)c1C(=O)NCCCCN1CCC(c2cccc(NC(=O)C(C)C)c2)CC1 [Example 680]
42 | 23.9 nM | Cc1onc(-c2ccccc2Cl)c1C(=O)NCCCCCN1CCC(c2cccc(NC(=O)C(C)C)c2)CC1 [Example 681]
43 | 7.1 nM | CC(C)C(=O)Nc1cccc(C2CCN(CCCc3c(-c4ccc(C(F)(F)F)cc4)n(C)c4ccccc34)CC2)c1 [Example 682]
44 | 54.2 nM | CC(C)C(=O)Nc1cccc(C2CCN(CCCc3c(-c4ccc(C(F)(F)F)cc4)[nH]c4ccc(OC(F)(F)F)cc34)CC2)c1 [Example 683]
45 | 5.4 nM | CC(C)C(=O)Nc1cccc(C2CCN(CCCc3c(-c4ccc(C(F)(F)F)cc4)[nH]c4ccccc34)CC2)c1 [Example 684]
46 | 82.4 nM | CC(C)C(=O)Nc1cccc(C2CCN(CCCc3c(-c4ccc(C(F)(F)F)cc4)n(-c4ccccc4)c4ccccc34)CC2)c1 [Example 685]
47 | 33.9 nM | CC(C)C(=O)Nc1cccc(C2CCN(CCCc3c(-c4ccc(C(F)(F)F)cc4)[nH]c4c3ccc3ccccc34)CC2)c1 [Example 686, 2-METHYL-N-{3-[1-(3-(2-[4-(TRIFLUOROMETHYL)PHENYL]-1H-BENZO [G]INDOL-3-YL}PROPYL)-4-PIPERIDINYL]PHENYL}PROPANAMIDE]
48 | 20.6 nM | Cc1cccc2c(CCCN3CCC(c4cccc(NC(=O)C(C)C)c4)CC3)c(-c3ccc(C(F)(F)F)cc3)[nH]c12 [Example 687]

Row | Ki | SMILES
49 | 41 nM | Cc1ccc2[nH]c(-c3ccc(C(F)(F)F)cc3)c(CCCN3CCC(c4cccc(NC(=O)C(C)C)c4)CC3)c2c1 [Example 688]
50 | 11.3 nM | COc1ccc2[nH]c(-c3ccc(C(F)(F)F)cc3)c(CCCN3CCC(c4cccc(NC(=O)C(C)C)c4)CC3)c2c1 [Example 689]
51 | 5.2 nM | Cc1cccc2c(CCCN3CCC(c4cccc(NC(=O)C(C)C)c4)CC3)c(-c3cccc(F)c3)[nH]c12 [Example 690]
52 | 16.3 nM | CC(C)C(=O)Nc1cccc(C2CCN(CCCc3c(-c4ccc(Cl)cc4)n(C)c4ccccc34)CC2)c1 [Example 691]
53 | 2 nM | COc1ccc2[nH]c(-c3ccc(F)cc3)c(CCCN3CCC(c4cccc(NC(=O)C(C)C)c4)CC3)c2c1 [Example 692]
54 | 0.4 nM | CC(C)C(=O)Nc1cccc(C2CCN(CCCc3c(-c4ccccc4F)[nH]c4ccccc34)CC2)c1 [Example 693]
55 | 6.4 nM | CC(C)C(=O)Nc1cccc(C2CCN(CCCc3c(-c4cccc(F)c4)[nH]c4ccc(OC(F)(F)F)cc34)CC2)c1 [Example 694]
56 | 2.1 nM | CC(C)C(=O)Nc1cccc(C2CCN(CCCc3c(-c4ccccc4F)[nH]c4ccc(OC(F)(F)F)cc34)CC2)c1 [Example 695]
57 | 48.3 nM | CC(C)C(=O)Nc1cccc(C2CCN(CCCc3c(-c4ccc(F)cc4)n(-c4ccccc4)c4ccccc34)CC2)c1 [Example 696]
58 | 3 nM | CC(C)C(=O)Nc1cccc(C2CCN(CCCc3c(-c4ccccc4F)[nH]c4c3ccc3ccccc34)CC2)c1 [Example 697]
59 | 3 nM | Cc1ccc2[nH]c(-c3ccccc3F)c(CCCN3CCC(c4cccc(NC(=O)C(C)C)c4)CC3)c2c1 [Example 698]
60 | 5.4 nM | CC(C)C(=O)Nc1cccc(C2CCN(CCCc3c(-c4cccc(F)c4)[nH]c4c3ccc3ccccc34)CC2)c1 [Example 699]
61 | 2 nM | CC(C)C(=O)Nc1cccc(C2CCN(CCCc3c(-c4ccc(F)cc4)n(C)c4ccccc34)CC2)c1 [Example 700]
62 | 2.5 nM | COc1ccc2[nH]c(-c3cccc(F)c3)c(CCCN3CCC(c4cccc(NC(=O)C(C)C)c4)CC3)c2c1 [Example 701]
63 | 27 nM | CC(C)C(=O)Nc1cccc(C2CCN(CCCc3c(-c4cccc(F)c4)n(-c4ccccc4)c4ccccc34)CC2)c1 [Example 702]
64 | 16.6 nM | CC(C)C(=O)Nc1cccc(C2CCN(CCCc3c(-c4ccc(Cl)cc4)[nH]c4ccc(OC(F)(F)F)cc34)CC2)c1 [Example 703]
65 | 1.2 nM | CC(C)C(=O)Nc1cccc(C2CCN(CCCc3c(-c4cccc(F)c4)[nH]c4ccccc34)CC2)c1 [Example 704]
66 | 8.5 nM | CC(C)C(=O)Nc1cccc(C2CCN(CCCc3c(-c4cccc(F)c4)n(C)c4ccccc34)CC2)c1 [Example 705]
67 | 4.2 nM | Cc1ccc2[nH]c(-c3cccc(F)c3)c(CCCN3CCC(c4cccc(NC(=O)C(C)C)c4)CC3)c2c1 [Example 706]
68 | 19.6 nM | CC(C)C(=O)Nc1cccc(C2CCN(CCCc3c(-c4ccc(Cl)cc4)[nH]c4c3ccc3ccccc34)CC2)c1 [Example 707]
69 | 3.8 nM | CC(C)C(=O)Nc1cccc(C2CCN(CCCc3c(-c4ccc(Cl)cc4)[nH]c4ccccc34)CC2)c1 [Example 708]
70 | 1.3 nM | CC(C)C(=O)Nc1cccc(C2CCN(CCCc3c(-c4ccccc4F)n(C)c4ccccc34)CC2)c1 [Example 709]
71 | 6.9 nM | Cc1cccc2c(CCCN3CCC(c4cccc(NC(=O)C(C)C)c4)CC3)c(-c3ccccc3F)[nH]c12 [Example 710]
